From patent US4567182A, “Compounds endowed with immunomodulating activity” (Co Pharma Corporation s.r.l., priority 1981, dated 1986)

Experiments:
T-lymphocytes = assay: Ability of T-lymphocytes to form "active" E-rosettes; assay type: cell-based
Procedure: The effect of the compounds object of this invention on the ability of T-lymphocytes to form "active" E-rosettes, has also been studied (Pasino e coll., Boll. Ist. Sieroter, Mil. 60, 4, 297-301, 1981).
Lymphocytes were incubated at 4° for 24 hours, then isolated and incubated for 90 min. in the presence or absence of different concentrations of the drug prior to the assay. Data were expressed as % of cells forming rosettes: as an example, compound (Ib-2) gave an enhancement of the percentage from 35 to 50%, at concentrations from 1 and 3 μg/ml; higher concentrations, the percentage of active E-rosettes decreased.

[1] = system: polymorphonuclear leucocytes; assay: Polymorphonuclear (PMN) membrane-stimulated oxidative metabolic activity (superoxide production); assay type: cell-based
Procedure: In FIG. 2 the results of the study of the effect of (Ib-4) on the polymorphonuclear (PMN) […] membrane-stimulated oxidative metabolic activity are reported: polymorphonuclear leucocytes (2.5×10^4 /ml) in phosphate buffer solution (PBS) were incubated for 15' at 37° C. with ferricytochrome C (1.5 mg/ml) in the presence or absence of superoxide dismutase (SOD) (0.125 mg/ml) after the addition of 50 μl of stimulating agent.
The amount of reduced cytochrome C in che cell free supernatant was determined spectrophotometrically at 550 nm and the O2^- release calculated according to a standard formula. Appropriate control tubes contained fixed doses of (Ib-4) (from 0.01 γ/ml to 200 γ/ml).

[2] = system: allogeneic mitomycin-treated lymphocytes; assay: Suppressor cell effect: Mixed Lymphocytes Reaction; assay type: cell-based, human (healthy volunteers); settings: 0.1 to 1.5 μg/ml; 48 h drug incubation; mixed lymphocytes 5 days
Procedure: (§1) The effect of (Ib-4) on the suppressor cell has also been studied using lymphocytes from healthy volunteers, incubated for 48 hours with different drug concentrations then washed and incubated either with autologous lymphocytes stimulated by concanavalin A for 3 days or with allogeneic mitomycin-treated lymphocytes for 5 days (Mixed Lymphocytes Reaction): (Ib-4), at concentrations between 0.1 and 1.5 μg/ml, gave an inhibition of the proliferative response of about 60% in comparison with controls.

[3] = system: autologous lymphocytes stimulated by concanavalin A; assay: Suppressor cell effect: proliferative response of autologous lymphocytes stimulated by concanavalin A; assay type: cell-based, human (healthy volunteers); settings: 0.1 to 1.5 μg/ml; 48 h drug incubation; concanavalin A 3 days
Procedure: as §1

[4] = system: PHA stimulated lymphocytes; assay: Stimulation by phytohemagglutinin (PHA) of lymphocytes from Hodgkin's disease patients; assay type: cell-based, human (patients affected by Hodgkin's disease); settings: for effect on the PHA response: Ib-4 already at 0.1 γ/ml, methisoprinol at 200-400 γ/ml
Excerpt: In FIG. 1, the effects of compound (Ib-4) are shown in comparison with methisoprinol on the stimulation by phytohemagglutinin (PHA) of lymphocytes extracted by patients affected by Hodgkin's disease and off-therapy since, at least, 17 months. The PHA response of lymphocytes of these patients are below normal range.
The in vitro effect of (Ib, 4) and methisoprinol on the stimulation by PHA of lymphocytes was studied by cultivating PHA stimulated lymphocytes in the presence of these compounds at different doses: methisoprinol at 100, 200, 400 γ/ml; (Ib-4) at 0.1, 0.5, 1 and 5 γ/ml.

[5] = system: spleen cells from BALB/C mice; assay: Incorporation of labelled thymidine stimulated by PHA or LPS in spleen cells; assay type: cell-based, mouse (BALB/C); set-up: Thymid. inc.: unit not given here
Procedure: Ib-4 is also active, at doses ranging from 0.001 to 40 μg/ml, in inhibiting the incorporation of labelled thymidine stimulated by phytohemagglutinin (PHA) or lypopolysaccharides (LPS), in spleen cells from BALB/C mice 8-10 weeks old. The inhibition of the proliferation in vitro is dose-dependent and it is probably due to activation of suppressor cell mechanism. In the following table the results of thymidine incorporation in a 10^6 cells/ml culture have been listed.

CC(NC(=O)CCC(=O)OCCn1cnc2c(O)ncnc21)C(=O)O (racemic) [Ib-2, 6-Hydroxy-9-{2-[2-(1-carboxy)ethylaminocarbonylethyl]carbonyloxyethyl}purine]
% of cells forming active E-rosettes (T-lymphocytes; 1 and 3 μg/ml, enhanced from 35%, 90 min incubation): 50%
percentage of active E-rosettes at higher concentrations (T-lymphocytes; concentrations higher than 1 and 3 μg/ml): decreased

N=C(NCCC[C@H](N)C(=O)O)NC(=O)CCC(=O)OCCn1cnc2c(O)ncnc21 [Ib-4, N-{3-[2-(6-hydroxypurinyl-9)-ethoxycarbonyl]propionyl}-N'-(4-carboxy-4-amino-butyl)guanidine]
enhancement in the superoxide production ([1]; 1 γ/ml, T-test for paired data): statistically significant enhancement in the superoxide production
O2- production at higher dosages ([1]; dosages higher than 1 γ/ml (up to 200 γ/ml)): gradual decrease of the O2^- production
inhibition of the proliferative response in comparison with controls [2]: about 60%
inhibition of the proliferative response in comparison with controls [3]: about 60%
minimal effective concentration ([4]; Homo sapiens, Lymphocyte, in vitro, lymphocytes of Hodgkin's disease patients off-therapy, read-out: dose producing enhancement of the PHA response): ≤ 0.1 µg/mL
effect on the PHA response [4]: marked enhancement of the PHA response
Thymid. inc. ([5]; LPS (printed LPSD), drug 0.1 μg/ml, control without drug 15631+/-215): 729+/-51
Thymid. inc. ([5]; LPS, drug 0.001 μg/ml, control without drug 15631+/-215): 4600+/-85
Thymid. inc. ([5]; LPS, drug 0.01 μg/ml, control without drug 15631+/-215): 435+/-113
Thymid. inc. ([5]; LPS, drug 1 μg/ml, control without drug 15631+/-215): 665+/-19
Thymid. inc. ([5]; LPS, drug 2.5 μg/ml, control without drug 15631+/-215): 627+/-40
Thymid. inc. ([5]; LPS, drug 5 μg/ml, control without drug 15631+/-215): 445+/-44
Thymid. inc. ([5]; LPS, drug 10 μg/ml, control without drug 15631+/-215): 385+/-38
Thymid. inc. ([5]; LPS, drug 15 μg/ml, control without drug 15631+/-215): 405+/-51
Thymid. inc. ([5]; LPS, drug 20 μg/ml, control without drug 15631+/-215): 385+/-38
Thymid. inc. ([5]; LPS, drug 40 μg/ml, 10^6 cells/ml, control without drug 15631+/-215): 329+/-23
inhibition of the proliferation in vitro ([5]; PHA or LPS stimulated, 0.001 to 40 μg/ml): dose-dependent
Thymid. inc. ([5]; PHA, drug 0.001 μg/ml, control without drug 3089+/-177): 840+/-87
Thymid. inc. ([5]; PHA, drug 0.01 μg/ml, control without drug 3089+/-177): 850+/-61
Thymid. inc. ([5]; PHA, drug 0.1 μg/ml, control without drug 3089+/-177): 721+/-77
Thymid. inc. ([5]; PHA, drug 1 μg/ml, control without drug 3089+/-177): 316+/-78
Thymid. inc. ([5]; PHA, drug 2.5 μg/ml, control without drug 3089+/-177): 250+/-34
Thymid. inc. ([5]; PHA, drug 5 μg/ml, control without drug 3089+/-177): 193+/-50
Thymid. inc. ([5]; PHA, drug 10 μg/ml, control without drug 3089+/-177): 146+/-19
Thymid. inc. ([5]; PHA, drug 15 μg/ml, control without drug 3089+/-177): 141+/-40
Thymid. inc. ([5]; PHA, drug 20 μg/ml, control without drug 3089+/-177): 241+/-16
Thymid. inc. ([5]; PHA, drug 40 μg/ml, 10^6 cells/ml, control without drug 3089+/-177): 159+/-13

methisoprinol [reference compound]
effect on the PHA response [4]: a stimulating effect which is less than that produced by (Ib-4)
dose producing enhancement of the PHA response ([4]; in vitro, lymphocytes of Hodgkin's disease patients off-therapy): 200 to 400 µg/mL
